# Tests used:
# [1] = test system: Leukemia L-1210 cells; test: Antileukemia test, L-1210 (Test Example 1); assay type: in vivo, CDF mice; settings: for Number of survivals: 60 days
# Protocol: (1) Test animals: About 6-week old CDF mice each weighing 22±1 g; one group comprising 7 male mice.
# 1×10^5 Leukemia L-1210 cells per mouse were implanted into the abdomen of each mouse. After 24 hours, a given amount of CNUA dissolved in isotonic sodium chloride solution was administered to the mice in through three different methods, i.e. intraperitoneal administration, intravenous administration and peroral administration. The rate of apothanacia (%) and number of survivals after 60 days were examined.
# ^a Symbols in the column of "Method of Administration" have the
# ip: Intraperitoneal administration,
# iv: Intravenous administration,
# po: Peroral administration,
# day 1: A given amount of CNUA was administered once 24 hours after the
# day 1-3: Continuous administration once a day for three days subsequently
# ^b Rate of apothanasia % (ILS) was calculated according to the
# ^c Number of survivals means the number of mice which survived for 60
# days or longer in the group consisting of the 7 mice tested.
# [2] = test system: Leukemia P-388 cells; test: Antileukemia test, P-388 (Test Example 2); assay type: in vivo, CDF mice; settings: for ILS (rate of apothanasia): 24 hours after implantation; for Number of survivals: 60 days
# Protocol: (1) Test animals: The same animals as in Test 1.
# 1×10^5 Leukemia P-388 cells per mouse were implanted into the abdomen of each mouse. After 24 hours, a given amount of CNUA dissolved in isotonic sodium chloride solution was administered to the mice. The rate of apothanasia (%) and number of survivals after 60 days were examined.
# [3] = test system: Lewis lung carcinoma cells; test: Test of therapeutical effects on Lewis lung carcinoma (Test Example 3); assay type: in vivo, BDF mice; settings: for Number of survivals: 60 days
# Text: (1) Test animals: About 6-week old BDF mice each weighing 22±1 g; one group comprising 7 male mice.
# 5×10^5 Lewis lung carcinoma cells per mouse were implanted under the skin of each mouse. […] The rate of apothanasia and number of survivals after 60 days were examined.
# *"day 1-9" in the column of "Method of Administration" indicates
# continuous administration once/day for 9 days subsequently to "day 1".
# [4] = test system: β-16 melanoma cells; test: Test of therapeutical effects on melanoma (Test Example 4); assay type: in vivo, BDF mice; settings: for Number of survivals: 60 days
# [5] = test system: lung autotumor; test: Inhibition of mouse lung autotumor induced by ethylnitrosourea (Test Example 5); assay type: in vivo, DDY mice
# Protocol: 100 mg/kg of ethylnitrosourea was given intraperitoneally to DDY mice 3 to 4 days prior to delivery. After delivery, mice born with lung autotumor were used as the test animals. One group consisted of 10 mice.
# Four weeks after birth, a given amount of CNUA was administered in two ways, i.e., intravenous administration and peroral administration at predetermined times. Nine weeks after, the area of the tumor of each mouse was measued and the inhibition rate (%) was calculated.
# [6] = Toxicity tests (LD50); settings: mouse, in vivo, DDY male mice
# Protocol: CNUA dissolved in isotonic sodium chloride solution was given to DDY male mice each weighing 20 to 22.5 g by intraperitoneal administration, intravenous administration and peroral administration, and LD50 values were determined.
# [7] = test system: leukemia L-1210, P 388, Lewis lung carcinoma, β-16 melanoma and mouse lung autotumor; test: Antitumor effect, overall statement of the patent; assay type: in vivo, warm-blooded animals; mice
structure (smiles),measurement,setting,value
"O=NN(CCCl)C(=O)N[C@@H]1[C@H](O)[C@@H](CO)OC(O)[C@@H]1O (stereo partly drawn) [CNUA, 3-[3-(2-chloroethyl)-3-nitrosoureido]-3-deoxy-D-allose]",ILS (rate of apothanasia),"[1]; 5 mg/kg/day, iv, day 1",29%
same,ILS (rate of apothanasia),"[1]; 10 mg/kg/day, iv, day 1",43%
same,ILS (rate of apothanasia),"[1]; 11.3 mg/kg/day, ip, day 1",86%
same,ILS (rate of apothanasia),"[1]; 11.3 mg/kg/day, ip, day 1-3",143%
same,ILS (rate of apothanasia),"[1]; 20 mg/kg/day, iv, day 1",86%
same,ILS (rate of apothanasia),"[1]; 22.5 mg/kg/day, ip, day 1",157%
same,ILS (rate of apothanasia),"[1]; 22.5 mg/kg/day, ip, day 1-3",> 757%
same,ILS (rate of apothanasia),"[1]; 40 mg/kg/day, iv, day 1",> 757%
same,ILS (rate of apothanasia),"[1]; 45 mg/kg/day, ip, day 1",> 757%
same,ILS (rate of apothanasia),"[1]; 45 mg/kg/day, ip, day 1-3",> 757%
same,ILS (rate of apothanasia),"[1]; 50 mg/kg/day, iv, day 1",400%
same,ILS (rate of apothanasia),"[1]; 60 mg/kg/day, ip, day 1",> 757%
same,ILS (rate of apothanasia),"[1]; 60 mg/kg/day, ip, day 1-3",> 757%
same,ILS (rate of apothanasia),"[1]; 100 mg/kg/day, po, day 1",86%
same,ILS (rate of apothanasia),"[1]; 200 mg/kg/day, po, day 1",100%
same,ILS (rate of apothanasia),"[1]; 300 mg/kg/day, po, day 1",100%
same,ILS (rate of apothanasia),"[1]; 400 mg/kg/day, po, day 1",57%
same,Number of survivals,"[1]; 5 mg/kg/day, iv, day 1",0/7
same,Number of survivals,"[1]; 10 mg/kg/day, iv, day 1",0/7
same,Number of survivals,"[1]; 11.3 mg/kg/day, ip, day 1",1/7
same,Number of survivals,"[1]; 11.3 mg/kg/day, ip, day 1-3",1/7
same,Number of survivals,"[1]; 20 mg/kg/day, iv, day 1",1/7
same,Number of survivals,"[1]; 22.5 mg/kg/day, ip, day 1",3/7
same,Number of survivals,"[1]; 22.5 mg/kg/day, ip, day 1-3",5/7
same,Number of survivals,"[1]; 40 mg/kg/day, iv, day 1",4/7
same,Number of survivals,"[1]; 45 mg/kg/day, ip, day 1",7/7
same,Number of survivals,"[1]; 45 mg/kg/day, ip, day 1-3",5/7
same,Number of survivals,"[1]; 50 mg/kg/day, iv, day 1",2/7
same,Number of survivals,"[1]; 60 mg/kg/day, ip, day 1",4/7
same,Number of survivals,"[1]; 60 mg/kg/day, ip, day 1-3",4/7
same,Number of survivals,"[1]; 100 mg/kg/day, po, day 1",0/7
same,Number of survivals,"[1]; 200 mg/kg/day, po, day 1",3/7
same,Number of survivals,"[1]; 300 mg/kg/day, po, day 1",2/7
same,Number of survivals,"[1]; 400 mg/kg/day, po, day 1",2/7
same,ILS (rate of apothanasia),[2]; 3.75 mg/kg/day,50%
same,ILS (rate of apothanasia),[2]; 7.5 mg/kg/day,90%
same,ILS (rate of apothanasia),[2]; 15 mg/kg/day,240%
same,ILS (rate of apothanasia),[2]; 30 mg/kg/day,> 500%
same,ILS (rate of apothanasia),[2]; 45 mg/kg/day,> 500%
same,ILS (rate of apothanasia),[2]; 60 mg/kg/day,> 500%
same,Number of survivals,[2]; 3.75 mg/kg/day,0/7
same,Number of survivals,[2]; 7.5 mg/kg/day,0/7
same,Number of survivals,[2]; 15 mg/kg/day,3/7
same,Number of survivals,[2]; 30 mg/kg/day,5/7
same,Number of survivals,[2]; 45 mg/kg/day,7/7
same,Number of survivals,[2]; 60 mg/kg/day,6/7
same,ILS (rate of apothanasia),"[3]; 2.23 mg/kg/day, ip, day 1-9",4%
same,ILS (rate of apothanasia),"[3]; 4.45 mg/kg/day, ip, day 1-9",21%
same,ILS (rate of apothanasia),"[3]; 5 mg/kg/day, ip, day 1",0%
same,ILS (rate of apothanasia),"[3]; 6.67 mg/kg/day, ip, day 1-9",29%
same,ILS (rate of apothanasia),"[3]; 10 mg/kg/day, ip, day 1",0%
same,ILS (rate of apothanasia),"[3]; 15 mg/kg/day, iv, day 1",35%
same,ILS (rate of apothanasia),"[3]; 20 mg/kg/day, ip, day 1",68%
same,ILS (rate of apothanasia),"[3]; 30 mg/kg/day, iv, day 1",80%
same,ILS (rate of apothanasia),"[3]; 40 mg/kg/day, ip, day 1",> 172%
same,ILS (rate of apothanasia),"[3]; 40 mg/kg/day, iv, day 1",> 200%
same,ILS (rate of apothanasia),"[3]; 50 mg/kg/day, iv, day 1",> 200%
same,Number of survivals,"[3]; 2.23 mg/kg/day, ip, day 1-9",0/7
same,Number of survivals,"[3]; 4.45 mg/kg/day, ip, day 1-9",1/7
same,Number of survivals,"[3]; 5 mg/kg/day, ip, day 1",0/7
same,Number of survivals,"[3]; 6.67 mg/kg/day, ip, day 1-9",0/7
same,Number of survivals,"[3]; 10 mg/kg/day, ip, day 1",0/7
same,Number of survivals,"[3]; 15 mg/kg/day, iv, day 1",0/7
same,Number of survivals,"[3]; 20 mg/kg/day, ip, day 1",2/7
same,Number of survivals,"[3]; 30 mg/kg/day, iv, day 1",1/7
same,Number of survivals,"[3]; 40 mg/kg/day, ip, day 1",6/7
same,Number of survivals,"[3]; 40 mg/kg/day, iv, day 1",6/7
same,Number of survivals,"[3]; 50 mg/kg/day, iv, day 1",5/7
same,ILS (rate of apothanasia),"[4]; 1.12 mg/kg/day, day 1-9, ip",10%
same,ILS (rate of apothanasia),"[4]; 2.23 mg/kg/day, day 1-9, ip",25%
same,ILS (rate of apothanasia),"[4]; 4.45 mg/kg/day, day 1-9, ip",30%
same,ILS (rate of apothanasia),"[4]; 5 mg/kg/day, day 1, ip",0%
same,ILS (rate of apothanasia),"[4]; 6.67 mg/kg/day, day 1-9, ip",35%
same,ILS (rate of apothanasia),"[4]; 10 mg/kg/day, day 1, ip",16%
same,ILS (rate of apothanasia),"[4]; 20 mg/kg/day, day 1, ip",48%
same,ILS (rate of apothanasia),"[4]; 20 mg/kg/day, day 1, iv",65%
same,ILS (rate of apothanasia),"[4]; 40 mg/kg/day, day 1, ip",60%
same,ILS (rate of apothanasia),"[4]; 40 mg/kg/day, day 1, iv",155%
same,ILS (rate of apothanasia),"[4]; 60 mg/kg/day, day 1, iv",35%
same,Number of survivals,"[4]; 1.12 mg/kg/day, day 1-9, ip",0/7
same,Number of survivals,"[4]; 2.23 mg/kg/day, day 1-9, ip",0/7
same,Number of survivals,"[4]; 4.45 mg/kg/day, day 1-9, ip",0/7
same,Number of survivals,"[4]; 5 mg/kg/day, day 1, ip",0/7
same,Number of survivals,"[4]; 6.67 mg/kg/day, day 1-9, ip",0/7
same,Number of survivals,"[4]; 10 mg/kg/day, day 1, ip",0/7
same,Number of survivals,"[4]; 20 mg/kg/day, day 1, ip",1/7
same,Number of survivals,"[4]; 20 mg/kg/day, day 1, iv",1/7
same,Number of survivals,"[4]; 40 mg/kg/day, day 1, ip",2/7
same,Number of survivals,"[4]; 40 mg/kg/day, day 1, iv",1/7
same,Number of survivals,"[4]; 60 mg/kg/day, day 1, iv",0/7
same,Inhibition rate,"[5]; iv, 5 weeks after birth, 40 × 1 mg/kg",37.2%
same,Area of tumor (± S.E.),"[5]; iv, 5 weeks after birth, 40 × 1 mg/kg, p < 0.05, control 1.45 ± 0.30",0.91 ± 0.81 mm^2
same,Inhibition rate,"[5]; iv, 5.6 weeks after birth, 40 × 2 mg/kg",49.2%
same,Area of tumor (± S.E.),"[5]; iv, 5.6 weeks after birth, 40 × 2 mg/kg, p < 0.01, control 1.45 ± 0.30",0.75 ± 0.22 mm^2
same,Inhibition rate,"[5]; iv, 5.7 weeks after birth, 40 × 2 mg/kg",46.5%
same,Area of tumor (± S.E.),"[5]; iv, 5.7 weeks after birth, 40 × 2 mg/kg, p < 0.01, control 1.45 ± 0.30",0.79 ± 0.31 mm^2
same,Inhibition rate,"[5]; po, 5,6,7,8 weeks after birth, 133 × 4 mg/kg",44.7%
same,Area of tumor (± S.E.),"[5]; po, 5,6,7,8 weeks after birth, 133 × 4 mg/kg, p < 0.01, control 1.41 ± 0.44",0.78 ± 0.22 mm^2
same,Inhibition rate,"[5]; po, 5,6,7,8 weeks after birth, 200 × 4 mg/kg",44.7%
same,Area of tumor (± S.E.),"[5]; po, 5,6,7,8 weeks after birth, 200 × 4 mg/kg, p < 0.01, control 1.41 ± 0.44",0.78 ± 0.16 mm^2
same,Inhibition rate,"[5]; po, 5,6,7,8 weeks after birth, 267 × 4 mg/kg",61.0%
same,Area of tumor (± S.E.),"[5]; po, 5,6,7,8 weeks after birth, 267 × 4 mg/kg, p < 0.01, control 1.41 ± 0.44",0.55 ± 0.18 mm^2
same,Inhibition rate,"[5]; po, 5,6,7,8 weeks after birth, 333 × 4 mg/kg",53.2%
same,Area of tumor (± S.E.),"[5]; po, 5,6,7,8 weeks after birth, 333 × 4 mg/kg, p < 0.01, control 1.41 ± 0.44",0.66 ± 0.14 mm^2
same,LD50,[6]; ip,65.5 mg/kg
same,LD50,[6]; iv,80 mg/kg
same,LD50,[6]; po,550 mg/kg
same,antitumor effects,[7],powerful antitumor effects
